# Reference: patent US9216991B2 (Ares Trading S.A., priority 2012, dated 2015)
# pIC50: −log10 of the molar value. Counter-ions that a name gives are not always drawn.
# Molecular target: T1, IRAK4 (Homo sapiens, UniProt Q9NWZ3)
# T1 construct: His (N); TEV cleavage site (N)
# T1 sequence (Q9NWZ3 1-460): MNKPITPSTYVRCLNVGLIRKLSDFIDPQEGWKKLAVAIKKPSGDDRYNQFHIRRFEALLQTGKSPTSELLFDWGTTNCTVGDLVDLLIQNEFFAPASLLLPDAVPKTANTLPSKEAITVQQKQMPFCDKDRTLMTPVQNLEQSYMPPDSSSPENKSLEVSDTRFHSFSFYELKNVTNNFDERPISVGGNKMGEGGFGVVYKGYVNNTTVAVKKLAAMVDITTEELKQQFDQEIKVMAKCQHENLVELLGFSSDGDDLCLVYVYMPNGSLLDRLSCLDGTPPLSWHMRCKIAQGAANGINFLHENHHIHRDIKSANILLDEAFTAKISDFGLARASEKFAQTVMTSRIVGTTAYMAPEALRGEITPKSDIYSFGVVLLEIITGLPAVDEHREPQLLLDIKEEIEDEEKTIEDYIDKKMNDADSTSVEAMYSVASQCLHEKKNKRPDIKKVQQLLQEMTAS
# Assay: IRAK4 Enzymatic Assay
# Assay type: biochemical
# Settings: His-TEV-IRAK4 20 ng/well, ATP 2 μM, STK1-biotin peptide 300 nM, 3 hours at 30° C., FlashPlate radioactivity
# Method in brief: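 Radiometric FlashPlate readout: biotin-STK1 substrate (300 nM) captured on streptavidin after EDTA stop and washes. Reaction used His-TEV-IRAK4 (20 ng/well), 2 μM [^33P]-spiked ATP and compound (1 nM-20 μM), incubated 3 h at 30 °C in 50 mM HEPES pH 7.0, 10 mM MgCl2, 5 mM MnCl2, 2 mM DTT.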
row,pIC50,SMILES
1,6.00 to 7.00,"Cn1cc(-c2cccc(-c3ncc(-c4cnn(C5CCC(C(=O)O)CC5)c4)cn3)c2)cn1 (centres unmarked) [Example 62, 4-(4-{2-[3-(1-Methyl-1H-pyrazol-4-yl)-phenyl]-pyrimidin-5-yl}-pyrazol-1-yl)-cyclohexanecarboxylic acid]"
2,6.00 to 7.00,"CC(=O)N1CCCC(n2cc(-c3cnc(-c4cccc(-c5cnn(C)c5)c4)nc3)cn2)CC1 (centres unmarked) [Example 223, 1-[4-(4-{2-[3-(1-Methyl-1H-pyrazol-4-yl)-phenyl]-pyrimidin-5-yl}-pyrazol-1-yl)-azepan-1-yl]-ethanone]"
3,> 7.00,"CO[C@H]1CN(C(=O)[C@H]2CC[C@H](n3cc(-c4cnc(-c5cccc(-c6cnn(C)c6)c5)nc4)cn3)CC2)C[C@@H]1O (relative stereo) [Example 245, (Trans-3-Hydroxy-4-methoxy-pyrrolidin-1-yl)-[4-Trans-(4-{2-[3-(1-methyl-1H-pyrazol-4-yl)-phenyl]-pyrimidin-5-yl}-pyrazol-1-yl)-cyclohexyl]-methanone]"
4,6.00 to 7.00,"CN(C)C(=O)C1CC(n2cc(-c3cnc(-c4cccc(-c5cnn(C)c5)c4)nc3)cn2)C1 (centres unmarked) [Example 158, 3-(4-{2-[3-(1-Methyl-1H-pyrazol-4-yl)-phenyl]-pyrimidin-5-yl}-pyrazol-1-yl)-cyclobutanecarboxylic acid dimethylamide]"
5,6.00 to 7.00,"CC(=O)N1CC[C@@H](n2cc(-c3cnc(-c4cccc(-c5cnn(C)c5)c4)nc3)cn2)C[C@H]1C [Example 249, 1-[(2R,4R)-2-Methyl-4-(4-{2-[3-(1-methyl-1H-pyrazol-4-yl)-phenyl]-pyrimidin-5-yl}-pyrazol-1-yl)-piperidin-1-yl]-ethanone]"
6,5.30 to 6.00,"CC(=O)N1CC[C@@H](n2cc(-c3cnc(-c4cccc(-c5cnn(C)c5)c4)nc3)cn2)C1 [Example 130, 1-[(R)-3-(4-{2-[3-(1-Methyl-1H-pyrazol-4-yl)-phenyl]-pyrimidin-5-yl}-pyrazol-1-yl)-pyrrolidin-1-yl]-ethanone]"
7,> 7.00,"Cn1cc(-c2cccc(-c3ncc(-c4cnn(C5CCC[C@H](S(C)(=O)=O)C5)c4)cn3)c2)cn1 (single isomer, unassigned) [Example 279, 5-[1-(Cis-3-Methanesulfonyl-cyclohexyl)-1H-pyrazol-4-yl]-2-[3-(1-methyl-1H-pyrazol-4-yl)-phenyl]-pyrimidine]"
8,> 7.00,"CNC(=O)[C@H]1CC[C@H](n2cc(-c3cnc(-c4cccc(-c5cnn(C)c5)c4)nc3)cn2)CC1 [Example 143, Trans-4-(4-{2-[3-(1-Methyl-1H-pyrazol-4-yl)-phenyl]-pyrimidin-5-yl}-pyrazol-1-yl)-cyclohexanecarboxylic acid methylamide]"
9,> 7.00,"CN(CCO)C(=O)[C@H]1CC[C@H](n2cc(-c3cnc(-c4cccc(-c5cnn(C)c5)c4)nc3)cn2)CC1 [Example 185, trans-4-(4-{2-[3-(1-Methyl-1H-pyrazol-4-yl)-phenyl]-pyrimidin-5-yl}-pyrazol-1-yl)-cyclohexanecarboxylic acid (2-hydroxy-ethyl)-methyl-amide]"
10,> 7.00,"Cn1cc(-c2cccc(-c3ncc(-c4cnn([C@H]5CC[C@H](C(=O)N6CCOCC6)CC5)c4)cn3)c2)cn1 [Example 162, Trans-[4-(4-{2-[3-(1-Methyl-1H-pyrazol-4-yl)-phenyl]-pyrimidin-5-yl}-pyrazol-1-yl)-cyclohexyl]-morpholin-4-yl-methanone]"
11,> 7.00,"Cn1cc(-c2cccc(-c3ncc(-c4cnn([C@H]5CC[C@H](C(=O)NCC(C)(C)O)CC5)c4)cn3)c2)cn1 [Example 227, trans-4-(4-{2-[3-(1-Methyl-1H-pyrazol-4-yl)-phenyl]-pyrimidin-5-yl}-pyrazol-1-yl)-cyclohexanecarboxylic acid (2-hydroxy-2-methyl-propyl)-amide]"
12,> 7.00,"CC(=O)N[C@H]1CC[C@@H](n2cc(-c3cnc(-c4cccc(-c5cnn(C)c5)c4)nc3)cn2)CC1 [Example 161, Cis-N-[4-(4-{2-[3-(1-Methyl-1H-pyrazol-4-yl)-phenyl]-pyrimidin-5-yl}-pyrazol-1-yl)-cyclohexyl]-acetamide]"
13,6.00 to 7.00,"CN1CCC(n2cc(-c3cnc(-c4cccc(-c5cnn(C)c5)c4)nc3)cn2)CC1 [Example 6, 5-[1-(1-Methyl-piperidin-4-yl)-1H-pyrazol-4-yl]-2-[3-(1-methyl-1H-pyrazol-4-yl)-phenyl]-pyrimidine]"
14,> 7.00,"Cn1cc(-c2cccc(-c3ncc(-c4cnn([C@H]5CC[C@H](C(=O)NCC(O)CO)CC5)c4)cn3)c2)cn1 (stereo partly drawn) [Example 242, Trans-4-(4-{2-[3-(1-Methyl-1H-pyrazol-4-yl)-phenyl]-pyrimidin-5-yl}-pyrazol-1-yl)-cyclohexanecarboxylic acid (2,3-dihydroxy-propyl)-amide]"

# Continued, compound first:
row,SMILES,pIC50
1,"Cn1cc(-c2cccc(-c3ncc(-c4cnn(CC5CCNCC5)c4)cn3)c2)cn1 [Example 29, 2-[3-(1-Methyl-1H-pyrazol-4-yl)-phenyl]-5-(1-piperidin-4-ylmethyl-1H-pyrazol-4-yl)-pyrimidine hydrochloride]",5.30 to 6.00
2,"Cn1cc(-c2cccc(-c3ncc(-c4cnn(Cc5ncco5)c4)cn3)c2)cn1 [Example 46, 2-[3-(1-Methyl-1H-pyrazol-4-yl)-phenyl]-5-(1-oxazol-2-ylmethyl-1H-pyrazol-4-yl)-pyrimidine]",5.30 to 6.00
3,"Cn1cc(-c2cccc(-c3ncc(-c4cnn(C5CCN(C(=O)C6CCOCC6)CC5)c4)cn3)c2)cn1 [Example 107, [4-(4-{2-[3-(1-Methyl-1H-pyrazol-4-yl)-phenyl]-pyrimidin-5-yl}-pyrazol-1-yl)-piperidin-1-yl]-(tetrahydro-pyran-4-yl)-methanone]",6.00 to 7.00
4,"CC(C(=O)N(C)C)n1cc(-c2cnc(-c3cccc(-c4cnn(C)c4)c3)nc2)cn1 (centres unmarked) [Example 99, N,N-Dimethyl-2-(4-{2-[3-(1-methyl-1H-pyrazol-4-yl)-phenyl]-pyrimidin-5-yl}-pyrazol-1-yl)-propionamide]",5.30 to 6.00
5,"Cn1cc(-c2cccc(-c3ncc(-c4cnn(C5CCN(C(=O)C6CCOC6)CC5)c4)cn3)c2)cn1 (centres unmarked) [Example 104, [4-(4-{2-[3-(1-Methyl-1H-pyrazol-4-yl)-phenyl]-pyrimidin-5-yl}-pyrazol-1-yl)-piperidin-1-yl]-(tetrahydro-furan-3-yl)-methanone]",6.00 to 7.00
6,"Cn1cc(-c2cccc(-c3ncc(-c4cnn(C5CCNCC5(F)F)c4)cn3)c2)cn1 (centres unmarked) [Example 259, 5-[1-(3,3-Difluoro-piperidin-4-yl)-1H-pyrazol-4-yl]-2-[3-(1-methyl-1H-pyrazol-4-yl)-phenyl]-pyrimidine]",6.00 to 7.00
7,"Cn1cc(-c2cccc(-c3ncc(-c4cnn(C[C@@H]5CCCN5)c4)cn3)c2)cn1 [Example 70, 2-[3-(1-Methyl-1H-pyrazol-4-yl)-phenyl]-5-(1-(S)-1-pyrrolidin-2-ylmethyl-1H-pyrazol-4-yl)-pyrimidine hydrochloride]",5.30 to 6.00
8,"Cn1cc(-c2cccc(-c3ncc(-c4cnn(CC(O)CO)c4)cn3)c2)cn1 (centres unmarked) [Example 212, 3-(4-{2-[3-(1-Methyl-1H-pyrazol-4-yl)-phenyl]-pyrimidin-5-yl}-pyrazol-1-yl)-propane-1,2-diol]",6.00 to 7.00
9,"Cn1cc(-c2cccc(-c3ncc(-c4cnn(C5CCC6(CCC(=O)N6)CC5)c4)cn3)c2)cn1 (single isomer, unassigned) [Example 251, Trans-8-(4-{2-[3-(1-Methyl-1H-pyrazol-4-yl)-phenyl]-pyrimidin-5-yl}-pyrazol-1-yl)-1-aza-spiro[4.5]decan-2-one]",6.00 to 7.00
10,"Cc1cc(-c2cccc(-c3ncc(-c4cnn(C5CCOCC5)c4)cn3)c2)ccn1 [Example 139, 2-[3-(2-Methyl-pyridin-4-yl)-phenyl]-5-[1-(tetrahydro-pyran-4-yl)-1H-pyrazol-4-yl]-pyrimidine]",6.00 to 7.00
11,"CN(C(=O)Cn1cc(-c2cnc(-c3cccc(-c4cnn(C)c4)c3)nc2)cn1)C1COC1 [Example 145, N-Methyl-2-(4-{2-[3-(1-methyl-1H-pyrazol-4-yl)-phenyl]-pyrimidin-5-yl}-pyrazol-1-yl)-N-oxetan-3-yl-acetamide]",6.00 to 7.00
12,"c1cc(-c2ccoc2)cc(-c2ncc(-c3cnn(C4CCNCC4)c3)cn2)c1 [Example 7, 2-(3-Furan-3-yl-phenyl)-5-(1-piperidin-4-yl-1H-pyrazol-4-yl)-pyrimidine Hydrochloride]",6.00 to 7.00
13,"COCCC1CN(C(=O)Cn2cc(-c3cnc(-c4cccc(-c5cnn(C)c5)c4)nc3)cn2)CCO1 (centres unmarked) [Example 87, 1-[2-(2-Methoxy-ethyl)-morpholin-4-yl]-2-(4-{2-[3-(1-methyl-1H-pyrazol-4-yl)-phenyl]-pyrimidin-5-yl}-pyrazol-1-yl)-ethanone]",6.00 to 7.00
14,"Cn1cc(-c2cccc(-c3ncc(-c4cnn(CC(=O)N5CCC[C@H]5CO)c4)cn3)c2)cn1 [Example 81, 1-((S)-2-Hydroxymethyl-pyrrolidin-1-yl)-2-(4-{2-[3-(1-methyl-1H-pyrazol-4-yl)-phenyl]-pyrimidin-5-yl}-pyrazol-1-yl)-ethanone]",6.00 to 7.00
15,"CC(=O)N1CC[C@@H](n2cc(-c3cnc(-c4cccc(-c5cnn(C)c5)c4)nc3)cn2)[C@H](O)C1 (single isomer, unassigned) [Example 226]",6.00 to 7.00
